Reference: patent US20260274829A1, “NEW E3 UBIQUITIN LIGASE LIGAND, PROTEIN DEGRADATION AGENT AND USE THEREOF” (GLUETACS THERAPEUTICS (SHANGHAI) CO., LTD., priority 2023, published 2026)

How the values were obtained:
Type in all cases: cell-based
IKZF1 = molecular target: T1, IKZF1 (Homo sapiens, UniProt Q13422+Q96SW2); assay: Western blot degradation of IKZF1 in hPBMC
T1 construct: endogenous in cells; host or cells: hPBMC
Description: (§1) Conventional Western blot assay was performed to evaluate the effects of the compounds of the present disclosure on the expression of target proteins in cells.
(§2) • (1) Cell Seeding and Protein Harvesting: The selected cells were processed according to the cell seeding procedure and protein harvesting procedure in Table III-2.
(§3) • (2) To the collected supernatant, 5×SDS sample loading buffer was added, followed by denaturation at 95° C. for 5 minutes. The denatured samples were then separated by SDS-PAGE electrophoresis on a polyacrylamide gel. Proteins were transferred to a nitrocellulose membrane ([…] NC membrane), blocked with blocking buffer at room temperature for 1 hour, and subjected to antibody incubation and development procedures according to the antibody manufacturer's instructions (Cell Signaling Technology).
(§4) Half-Maximal Degradation Concentration value (the drug concentration required for degrading proteins by 50%, abbreviated as DC50) reads method: comparing the grayscale values of Western blot bands from drug-treated samples with those from blank DMSO-treated controls, and identifying the drug concentration range at which the grayscale value is half that of the DMSO-treated control bands.
(§5) DC50 values can be calculated using ImageJ software to measure grayscale values of Western blot bands from drug-treated samples. The concentration-response curve is fitted to estimate the drug concentration corresponding to half the grayscale value.
(§6) Target protein remaining (0%) refers to the percentage of target protein remaining in hPBMC cells after treatment with protein degrader compounds.
(§7) Calculation method for target protein remaining (0%): Use ImageJ software to measure grayscale values of Western blot bands from drug (protein degrader)-treated samples. The grayscale value of drug-treated bands is divided by that of internal control protein bands, and the resulting quotient is normalized to obtain the relative percentage of remaining target protein after protein degrader treatment.

IKZF2 = molecular target: T2, IKZF2 (Homo sapiens, UniProt Q96SW2+Q9UKS7); assay: Western blot degradation of IKZF2 in hPBMC
T2 construct: endogenous in cells; host or cells: hPBMC
T2 sequence (Q9UKS7 whole entry): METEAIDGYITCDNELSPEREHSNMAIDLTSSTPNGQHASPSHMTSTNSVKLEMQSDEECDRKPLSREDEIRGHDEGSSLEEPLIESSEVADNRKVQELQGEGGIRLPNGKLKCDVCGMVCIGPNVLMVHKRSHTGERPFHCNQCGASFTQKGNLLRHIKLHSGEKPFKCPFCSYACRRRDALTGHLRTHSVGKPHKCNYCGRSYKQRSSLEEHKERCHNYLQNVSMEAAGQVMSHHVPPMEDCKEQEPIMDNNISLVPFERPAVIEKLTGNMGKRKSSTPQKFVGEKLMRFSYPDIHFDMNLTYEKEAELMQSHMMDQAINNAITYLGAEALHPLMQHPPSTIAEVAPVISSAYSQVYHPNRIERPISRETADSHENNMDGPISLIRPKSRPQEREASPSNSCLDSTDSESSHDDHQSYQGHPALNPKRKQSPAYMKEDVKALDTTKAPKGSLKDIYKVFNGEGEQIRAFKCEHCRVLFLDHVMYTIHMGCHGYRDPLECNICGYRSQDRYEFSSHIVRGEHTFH
T2 sequence (Q96SW2 whole entry): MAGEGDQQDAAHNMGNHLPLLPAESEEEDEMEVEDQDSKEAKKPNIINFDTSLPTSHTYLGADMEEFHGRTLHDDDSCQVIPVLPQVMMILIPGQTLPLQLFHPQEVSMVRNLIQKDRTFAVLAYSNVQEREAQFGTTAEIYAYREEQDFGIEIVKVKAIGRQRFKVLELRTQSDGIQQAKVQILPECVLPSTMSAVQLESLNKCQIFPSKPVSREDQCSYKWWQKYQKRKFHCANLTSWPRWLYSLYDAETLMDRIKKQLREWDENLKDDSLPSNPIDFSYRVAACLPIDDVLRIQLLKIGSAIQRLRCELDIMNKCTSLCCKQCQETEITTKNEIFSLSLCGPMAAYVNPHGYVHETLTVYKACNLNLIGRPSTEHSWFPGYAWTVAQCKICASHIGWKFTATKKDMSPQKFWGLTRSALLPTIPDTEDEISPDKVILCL
T2 sequence (Q16531 whole entry partner): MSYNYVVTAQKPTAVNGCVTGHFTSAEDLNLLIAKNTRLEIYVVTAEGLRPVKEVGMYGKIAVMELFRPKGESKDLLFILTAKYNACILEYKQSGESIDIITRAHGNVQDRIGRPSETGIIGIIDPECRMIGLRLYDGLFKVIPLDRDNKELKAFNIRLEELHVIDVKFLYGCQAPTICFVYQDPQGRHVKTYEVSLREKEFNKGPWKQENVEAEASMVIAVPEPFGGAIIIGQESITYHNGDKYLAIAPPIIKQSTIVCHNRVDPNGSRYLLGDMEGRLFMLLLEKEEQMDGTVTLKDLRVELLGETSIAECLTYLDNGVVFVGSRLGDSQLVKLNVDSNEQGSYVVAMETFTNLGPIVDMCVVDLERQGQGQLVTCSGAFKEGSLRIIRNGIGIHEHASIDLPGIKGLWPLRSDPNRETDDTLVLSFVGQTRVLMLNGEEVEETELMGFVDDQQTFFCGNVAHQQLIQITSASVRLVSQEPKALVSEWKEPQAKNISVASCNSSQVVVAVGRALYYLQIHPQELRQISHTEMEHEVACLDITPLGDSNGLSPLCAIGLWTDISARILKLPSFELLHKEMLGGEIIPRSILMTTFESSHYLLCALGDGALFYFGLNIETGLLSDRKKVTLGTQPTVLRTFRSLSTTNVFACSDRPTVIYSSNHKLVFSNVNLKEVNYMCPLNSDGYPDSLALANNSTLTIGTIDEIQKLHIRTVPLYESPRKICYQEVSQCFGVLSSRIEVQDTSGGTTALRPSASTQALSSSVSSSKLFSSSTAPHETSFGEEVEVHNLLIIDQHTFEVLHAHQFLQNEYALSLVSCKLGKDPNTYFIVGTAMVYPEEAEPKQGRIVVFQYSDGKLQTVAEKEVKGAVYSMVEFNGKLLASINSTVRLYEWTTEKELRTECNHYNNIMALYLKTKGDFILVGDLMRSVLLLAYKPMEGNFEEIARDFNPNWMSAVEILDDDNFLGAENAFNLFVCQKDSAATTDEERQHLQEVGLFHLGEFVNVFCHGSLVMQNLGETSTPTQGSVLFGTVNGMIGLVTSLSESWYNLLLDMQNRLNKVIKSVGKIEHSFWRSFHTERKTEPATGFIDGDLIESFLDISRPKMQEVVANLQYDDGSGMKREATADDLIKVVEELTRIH
Description: as §1, §2, §3, §4, §5, §6, §7

IKZF3 = molecular target: T3, IKZF3 (Homo sapiens, UniProt Q96SW2+Q9UKT9); assay: Western blot degradation of IKZF3 in hPBMC
T3 construct: endogenous in cells; host or cells: hPBMC
Description: as §1, §2, §3, §4, §5, §6, §7

WEE1 = molecular target: T4, WEE1 (Homo sapiens, UniProt P30291+Q96SW2); assay: Western blot degradation of WEE1 in hPBMC
T4 construct: endogenous in cells; host or cells: hPBMC
T4 sequence (P30291 whole entry): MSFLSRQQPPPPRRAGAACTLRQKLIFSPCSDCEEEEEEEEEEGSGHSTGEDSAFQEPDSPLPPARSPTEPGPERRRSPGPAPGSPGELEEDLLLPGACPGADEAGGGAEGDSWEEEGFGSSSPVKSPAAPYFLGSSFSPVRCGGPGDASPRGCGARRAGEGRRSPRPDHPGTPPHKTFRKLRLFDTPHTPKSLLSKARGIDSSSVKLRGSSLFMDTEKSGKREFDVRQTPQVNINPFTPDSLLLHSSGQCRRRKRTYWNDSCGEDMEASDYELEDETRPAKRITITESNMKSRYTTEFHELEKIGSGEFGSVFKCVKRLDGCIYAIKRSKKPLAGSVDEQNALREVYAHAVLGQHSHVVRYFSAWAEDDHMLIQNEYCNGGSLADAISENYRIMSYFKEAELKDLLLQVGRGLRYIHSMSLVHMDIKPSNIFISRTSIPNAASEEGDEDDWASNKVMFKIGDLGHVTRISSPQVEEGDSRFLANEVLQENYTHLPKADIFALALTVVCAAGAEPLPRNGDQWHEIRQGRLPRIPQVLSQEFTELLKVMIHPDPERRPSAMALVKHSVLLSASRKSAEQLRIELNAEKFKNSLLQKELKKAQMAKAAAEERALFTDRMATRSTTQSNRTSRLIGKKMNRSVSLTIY
T4 sequence (Q96SW2 whole entry): as the sequence (Q96SW2 whole entry) above
T4 sequence (Q16531 whole entry partner): as the sequence (Q16531 whole entry partner) above
Description: as §1, §2, §3, §4, §5, §6, §7

CK1a = molecular target: T5, CK1a (Homo sapiens, UniProt P48729+Q96SW2); assay: Western blot degradation of CK1a in hPBMC
T5 construct: endogenous in cells; host or cells: hPBMC
T5 sequence (P48729 whole entry): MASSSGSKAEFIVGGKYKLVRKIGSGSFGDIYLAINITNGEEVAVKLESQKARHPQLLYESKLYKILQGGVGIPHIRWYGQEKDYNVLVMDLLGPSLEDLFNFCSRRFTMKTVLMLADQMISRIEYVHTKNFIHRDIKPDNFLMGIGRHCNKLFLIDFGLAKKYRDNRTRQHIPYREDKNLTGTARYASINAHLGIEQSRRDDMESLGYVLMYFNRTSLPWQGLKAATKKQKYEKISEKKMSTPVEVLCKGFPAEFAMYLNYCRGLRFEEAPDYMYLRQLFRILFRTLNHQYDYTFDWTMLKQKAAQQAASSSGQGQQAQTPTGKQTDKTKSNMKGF
T5 sequence (Q96SW2 whole entry): as the sequence (Q96SW2 whole entry) above
T5 sequence (Q16531 whole entry partner): as the sequence (Q16531 whole entry partner) above
Description: as §1, §2, §3, §4, §5, §6, §7

GSPT1 = molecular target: T6, GSPT1 (Homo sapiens, UniProt P15170+Q96SW2); assay: Western blot degradation of GSPT1 in hPBMC
T6 construct: endogenous in cells; host or cells: hPBMC
T6 sequence (P15170 whole entry): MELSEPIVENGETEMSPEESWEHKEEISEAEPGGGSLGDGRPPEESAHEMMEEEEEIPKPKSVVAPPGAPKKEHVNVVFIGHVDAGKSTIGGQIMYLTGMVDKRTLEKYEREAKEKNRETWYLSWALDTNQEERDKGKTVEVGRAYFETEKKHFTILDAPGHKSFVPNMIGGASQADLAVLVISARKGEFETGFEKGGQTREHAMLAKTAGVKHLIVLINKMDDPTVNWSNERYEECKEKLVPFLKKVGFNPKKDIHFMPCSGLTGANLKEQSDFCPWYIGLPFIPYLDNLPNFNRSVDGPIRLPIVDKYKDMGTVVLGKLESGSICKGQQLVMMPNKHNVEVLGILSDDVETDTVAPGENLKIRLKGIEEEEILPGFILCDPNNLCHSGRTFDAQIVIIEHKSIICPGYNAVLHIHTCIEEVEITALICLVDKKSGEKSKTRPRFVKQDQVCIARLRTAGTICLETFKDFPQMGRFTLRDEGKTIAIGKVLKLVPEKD
T6 sequence (Q96SW2 whole entry): as the sequence (Q96SW2 whole entry) above
T6 sequence (Q16531 whole entry partner): as the sequence (Q16531 whole entry partner) above
Description: as §1, §2, §3, §4, §5, §6, §7

T1 sequence (Q13422 whole entry): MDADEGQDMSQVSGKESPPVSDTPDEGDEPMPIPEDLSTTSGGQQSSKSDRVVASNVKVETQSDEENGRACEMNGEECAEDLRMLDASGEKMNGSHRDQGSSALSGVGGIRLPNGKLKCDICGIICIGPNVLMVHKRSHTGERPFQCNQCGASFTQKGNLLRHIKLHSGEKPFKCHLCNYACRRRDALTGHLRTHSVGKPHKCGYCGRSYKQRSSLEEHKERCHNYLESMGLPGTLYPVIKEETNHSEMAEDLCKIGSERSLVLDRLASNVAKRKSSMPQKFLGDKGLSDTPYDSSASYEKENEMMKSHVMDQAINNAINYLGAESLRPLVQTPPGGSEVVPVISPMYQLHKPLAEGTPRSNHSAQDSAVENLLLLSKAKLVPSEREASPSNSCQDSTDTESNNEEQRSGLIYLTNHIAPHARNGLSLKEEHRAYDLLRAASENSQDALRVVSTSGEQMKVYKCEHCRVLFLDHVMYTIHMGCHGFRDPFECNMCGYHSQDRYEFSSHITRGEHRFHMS
T1 sequence (Q96SW2 whole entry): as the sequence (Q96SW2 whole entry) above
T1 sequence (Q16531 whole entry partner): as the sequence (Q16531 whole entry partner) above

SMILES: O=C1CCC(c2cncc(CCl)c2)C(=O)N1 (stereo not drawn) [GT-06991, 3-(5-(chloromethyl)pyridin-3-yl)piperidine-2,6-dione]
- Degradation of substrate protein IKZF1 (substrate protein remaining %) (IKZF1): B (B is defined as substrate protein remaining % > 80%)
- Degradation of substrate protein IKZF2 (substrate protein remaining %) (IKZF2): A (A is defined as 0% ≤ substrate protein remaining % ≤ 80%)
- Degradation of substrate protein IKZF3 (substrate protein remaining %) (IKZF3): B (B is defined as substrate protein remaining % > 80%)
- Degradation of substrate protein WEE1 (substrate protein remaining %) (WEE1): B (B is defined as substrate protein remaining % > 80%)
- Degradation of substrate protein CK1a (substrate protein remaining %) (CK1a): B (B is defined as substrate protein remaining % > 80%)
- Degradation of substrate protein GSPT1 (substrate protein remaining %) (GSPT1): B (B is defined as substrate protein remaining % > 80%)

SMILES: O=C1CCN(c2ccc(CCl)cn2)C(=O)N1 [GT-07009, 1-(5-(chloromethyl)pyridin-2-yl)dihydropyrimidine-2,4(1H,3H)-dione]
- Degradation of substrate protein IKZF1 (substrate protein remaining %) (IKZF1): B (B is defined as substrate protein remaining % > 80%)
- Degradation of substrate protein IKZF2 (substrate protein remaining %) (IKZF2): B (B is defined as substrate protein remaining % > 80%)
- Degradation of substrate protein IKZF3 (substrate protein remaining %) (IKZF3): B (B is defined as substrate protein remaining % > 80%)
- Degradation of substrate protein WEE1 (substrate protein remaining %) (WEE1): B (B is defined as substrate protein remaining % > 80%)
- Degradation of substrate protein CK1a (substrate protein remaining %) (CK1a): A (A is defined as 0% ≤ substrate protein remaining % ≤ 80%)
- Degradation of substrate protein GSPT1 (substrate protein remaining %) (GSPT1): B (B is defined as substrate protein remaining % > 80%)

SMILES: O=C1CCC(c2ccc(CO)nc2)C(=O)N1 (stereo not drawn) [GT-07010, 3-(6-(hydroxymethyl)pyridin-3-yl)piperidine-2,6-dione]
- Degradation of substrate protein IKZF1 (substrate protein remaining %) (IKZF1): B (B is defined as substrate protein remaining % > 80%)
- Degradation of substrate protein IKZF2 (substrate protein remaining %) (IKZF2): B (B is defined as substrate protein remaining % > 80%)
- Degradation of substrate protein IKZF3 (substrate protein remaining %) (IKZF3): A (A is defined as 0% ≤ substrate protein remaining % ≤ 80%)
- Degradation of substrate protein WEE1 (substrate protein remaining %) (WEE1): B (B is defined as substrate protein remaining % > 80%)
- Degradation of substrate protein CK1a (substrate protein remaining %) (CK1a): A (A is defined as 0% ≤ substrate protein remaining % ≤ 80%)
- Degradation of substrate protein GSPT1 (substrate protein remaining %) (GSPT1): A (A is defined as 0% ≤ substrate protein remaining % ≤ 80%)

SMILES: NCc1ccc(N2CCC(=O)NC2=O)nc1 [GT-07012, 1-(5-(aminomethyl)pyridin-2-yl)dihydropyrimidine-2,4(1H,3H)-dione]
- Degradation of substrate protein IKZF1 (substrate protein remaining %) (IKZF1): B (B is defined as substrate protein remaining % > 80%)
- Degradation of substrate protein IKZF2 (substrate protein remaining %) (IKZF2): B (B is defined as substrate protein remaining % > 80%)
- Degradation of substrate protein IKZF3 (substrate protein remaining %) (IKZF3): A (A is defined as 0% ≤ substrate protein remaining % ≤ 80%)
- Degradation of substrate protein WEE1 (substrate protein remaining %) (WEE1): A (A is defined as 0% ≤ substrate protein remaining % ≤ 80%)
- Degradation of substrate protein CK1a (substrate protein remaining %) (CK1a): B (B is defined as substrate protein remaining % > 80%)
- Degradation of substrate protein GSPT1 (substrate protein remaining %) (GSPT1): A (A is defined as 0% ≤ substrate protein remaining % ≤ 80%)

SMILES: O=C1CCN(c2cncc(CCl)c2)C(=O)N1 [GT-07047, 1-(5-(chloromethyl)pyridin-3-yl)dihydropyrimidine-2,4(1H,3H)-dione]
- Degradation of substrate protein IKZF1 (substrate protein remaining %) (IKZF1): A (A is defined as 0% ≤ substrate protein remaining % ≤ 80%)
- Degradation of substrate protein IKZF2 (substrate protein remaining %) (IKZF2): A (A is defined as 0% ≤ substrate protein remaining % ≤ 80%)
- Degradation of substrate protein IKZF3 (substrate protein remaining %) (IKZF3): A (A is defined as 0% ≤ substrate protein remaining % ≤ 80%)
- Degradation of substrate protein WEE1 (substrate protein remaining %) (WEE1): B (B is defined as substrate protein remaining % > 80%)
- Degradation of substrate protein CK1a (substrate protein remaining %) (CK1a): A (A is defined as 0% ≤ substrate protein remaining % ≤ 80%)
- Degradation of substrate protein GSPT1 (substrate protein remaining %) (GSPT1): B (B is defined as substrate protein remaining % > 80%)

SMILES: NCc1ccc(N2CCC(=O)NC2=O)cn1 [GT-07048, 1-(6-(aminomethyl)pyridin-3-yl)dihydropyrimidine-2,4(1H,3H)-dione]
- Degradation of substrate protein IKZF1 (substrate protein remaining %) (IKZF1): A (A is defined as 0% ≤ substrate protein remaining % ≤ 80%)
- Degradation of substrate protein IKZF2 (substrate protein remaining %) (IKZF2): A (A is defined as 0% ≤ substrate protein remaining % ≤ 80%)
- Degradation of substrate protein IKZF3 (substrate protein remaining %) (IKZF3): A (A is defined as 0% ≤ substrate protein remaining % ≤ 80%)
- Degradation of substrate protein WEE1 (substrate protein remaining %) (WEE1): B (B is defined as substrate protein remaining % > 80%)
- Degradation of substrate protein CK1a (substrate protein remaining %) (CK1a): A (A is defined as 0% ≤ substrate protein remaining % ≤ 80%)
- Degradation of substrate protein GSPT1 (substrate protein remaining %) (GSPT1): A (A is defined as 0% ≤ substrate protein remaining % ≤ 80%)

SMILES: O=C1CCC(c2cnc(CO)c(F)c2)C(=O)N1 (stereo not drawn) [GT-07049, 3-(5-fluoro-6-(hydroxymethyl)pyridin-3-yl)piperidine-2,6-dione]
- Degradation of substrate protein IKZF1 (substrate protein remaining %) (IKZF1): B (B is defined as substrate protein remaining % > 80%)
- Degradation of substrate protein IKZF2 (substrate protein remaining %) (IKZF2): A (A is defined as 0% ≤ substrate protein remaining % ≤ 80%)
- Degradation of substrate protein IKZF3 (substrate protein remaining %) (IKZF3): A (A is defined as 0% ≤ substrate protein remaining % ≤ 80%)
- Degradation of substrate protein WEE1 (substrate protein remaining %) (WEE1): B (B is defined as substrate protein remaining % > 80%)
- Degradation of substrate protein CK1a (substrate protein remaining %) (CK1a): A (A is defined as 0% ≤ substrate protein remaining % ≤ 80%)
- Degradation of substrate protein GSPT1 (substrate protein remaining %) (GSPT1): A (A is defined as 0% ≤ substrate protein remaining % ≤ 80%)

SMILES: O=C1CCC(c2cc(CO)ccn2)C(=O)N1 (stereo not drawn) [GT-07050, 3-(4-(hydroxymethyl)pyridin-2-yl)piperidine-2,6-dione]
- Degradation of substrate protein IKZF1 (substrate protein remaining %) (IKZF1): A (A is defined as 0% ≤ substrate protein remaining % ≤ 80%)
- Degradation of substrate protein IKZF2 (substrate protein remaining %) (IKZF2): B (B is defined as substrate protein remaining % > 80%)
- Degradation of substrate protein IKZF3 (substrate protein remaining %) (IKZF3): A (A is defined as 0% ≤ substrate protein remaining % ≤ 80%)
- Degradation of substrate protein WEE1 (substrate protein remaining %) (WEE1): B (B is defined as substrate protein remaining % > 80%)
- Degradation of substrate protein CK1a (substrate protein remaining %) (CK1a): A (A is defined as 0% ≤ substrate protein remaining % ≤ 80%)
- Degradation of substrate protein GSPT1 (substrate protein remaining %) (GSPT1): A (A is defined as 0% ≤ substrate protein remaining % ≤ 80%)

SMILES: O=C1CCC(c2cnc(F)c(CO)c2)C(=O)N1 (stereo not drawn) [GT-07074, 3-(6-fluoro-5-(hydroxymethyl)pyridin-3-yl)piperidine-2,6-dione]
- Degradation of substrate protein IKZF1 (substrate protein remaining %) (IKZF1): B (B is defined as substrate protein remaining % > 80%)
- Degradation of substrate protein IKZF2 (substrate protein remaining %) (IKZF2): A (A is defined as 0% ≤ substrate protein remaining % ≤ 80%)
- Degradation of substrate protein IKZF3 (substrate protein remaining %) (IKZF3): A (A is defined as 0% ≤ substrate protein remaining % ≤ 80%)
- Degradation of substrate protein WEE1 (substrate protein remaining %) (WEE1): B (B is defined as substrate protein remaining % > 80%)
- Degradation of substrate protein CK1a (substrate protein remaining %) (CK1a): B (B is defined as substrate protein remaining % > 80%)
- Degradation of substrate protein GSPT1 (substrate protein remaining %) (GSPT1): A (A is defined as 0% ≤ substrate protein remaining % ≤ 80%)

SMILES: O=C1CCC(c2ccc(CO)cn2)C(=O)N1 (stereo not drawn) [GT-07075, 3-(5-(hydroxymethyl)pyridin-2-yl)piperidine-2,6-dione]
- Degradation of substrate protein IKZF1 (substrate protein remaining %) (IKZF1): B (B is defined as substrate protein remaining % > 80%)
- Degradation of substrate protein IKZF2 (substrate protein remaining %) (IKZF2): A (A is defined as 0% ≤ substrate protein remaining % ≤ 80%)
- Degradation of substrate protein IKZF3 (substrate protein remaining %) (IKZF3): A (A is defined as 0% ≤ substrate protein remaining % ≤ 80%)
- Degradation of substrate protein WEE1 (substrate protein remaining %) (WEE1): B (B is defined as substrate protein remaining % > 80%)
- Degradation of substrate protein CK1a (substrate protein remaining %) (CK1a): B (B is defined as substrate protein remaining % > 80%)
- Degradation of substrate protein GSPT1 (substrate protein remaining %) (GSPT1): A (A is defined as 0% ≤ substrate protein remaining % ≤ 80%)
